Experiments:
Assay in all cases: Kinase profiling in a biochemical assay panel (mobility shift assays and ELISA), %-inhibition at 1 μM; selectivity entropy
[1] = target: panel of more than 300 wild-type and mutant kinases (313 kinase panel) (Homo sapiens, UniProt P23458)
[2] = target: panel of more than 300 wild-type and mutant kinases (313 kinase panel) (Homo sapiens, UniProt Q8N568)
[3] = target: panel of more than 300 wild-type and mutant kinases (313 kinase panel) (Homo sapiens, UniProt P68400); details: kinase CK2α1/β; 1 μM compound
[4] = target: T1, panel of more than 300 wild-type and mutant kinases (313 kinase panel) (Homo sapiens, UniProt O60285)
T1 sequence (O60285 1-661): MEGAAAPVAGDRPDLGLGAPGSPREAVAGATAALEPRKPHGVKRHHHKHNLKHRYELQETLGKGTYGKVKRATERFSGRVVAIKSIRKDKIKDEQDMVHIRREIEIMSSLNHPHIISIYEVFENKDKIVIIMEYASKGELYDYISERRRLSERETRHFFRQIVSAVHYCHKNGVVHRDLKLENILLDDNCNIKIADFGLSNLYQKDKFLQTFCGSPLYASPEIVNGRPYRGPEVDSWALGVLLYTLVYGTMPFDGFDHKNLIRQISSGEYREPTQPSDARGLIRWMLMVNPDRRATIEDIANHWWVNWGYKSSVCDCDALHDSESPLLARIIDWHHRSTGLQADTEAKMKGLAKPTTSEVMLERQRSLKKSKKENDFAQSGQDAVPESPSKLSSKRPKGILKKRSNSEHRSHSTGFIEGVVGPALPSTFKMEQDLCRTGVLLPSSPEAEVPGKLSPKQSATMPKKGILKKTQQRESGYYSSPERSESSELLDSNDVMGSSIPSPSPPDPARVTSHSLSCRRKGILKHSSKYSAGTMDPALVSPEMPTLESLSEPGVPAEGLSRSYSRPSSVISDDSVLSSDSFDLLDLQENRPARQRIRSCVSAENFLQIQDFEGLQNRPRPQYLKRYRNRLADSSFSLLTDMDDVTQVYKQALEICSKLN

[5] = target: panel of more than 300 wild-type and mutant kinases (313 kinase panel) (Homo sapiens, UniProt P53667); details: kinase LIMK1; compound at 1 μM
[6] = target: panel of more than 300 wild-type and mutant kinases (313 kinase panel) (Homo sapiens, UniProt P07948)
[7] = target: panel of more than 300 wild-type and mutant kinases (313 kinase panel) (Homo sapiens, UniProt P41240)
[8] = target: T2, panel of more than 300 wild-type and mutant kinases (313 kinase panel) (Homo sapiens, UniProt P33981); details: kinase TTK; compound at 1 μM
T2 sequence (P33981 1-857): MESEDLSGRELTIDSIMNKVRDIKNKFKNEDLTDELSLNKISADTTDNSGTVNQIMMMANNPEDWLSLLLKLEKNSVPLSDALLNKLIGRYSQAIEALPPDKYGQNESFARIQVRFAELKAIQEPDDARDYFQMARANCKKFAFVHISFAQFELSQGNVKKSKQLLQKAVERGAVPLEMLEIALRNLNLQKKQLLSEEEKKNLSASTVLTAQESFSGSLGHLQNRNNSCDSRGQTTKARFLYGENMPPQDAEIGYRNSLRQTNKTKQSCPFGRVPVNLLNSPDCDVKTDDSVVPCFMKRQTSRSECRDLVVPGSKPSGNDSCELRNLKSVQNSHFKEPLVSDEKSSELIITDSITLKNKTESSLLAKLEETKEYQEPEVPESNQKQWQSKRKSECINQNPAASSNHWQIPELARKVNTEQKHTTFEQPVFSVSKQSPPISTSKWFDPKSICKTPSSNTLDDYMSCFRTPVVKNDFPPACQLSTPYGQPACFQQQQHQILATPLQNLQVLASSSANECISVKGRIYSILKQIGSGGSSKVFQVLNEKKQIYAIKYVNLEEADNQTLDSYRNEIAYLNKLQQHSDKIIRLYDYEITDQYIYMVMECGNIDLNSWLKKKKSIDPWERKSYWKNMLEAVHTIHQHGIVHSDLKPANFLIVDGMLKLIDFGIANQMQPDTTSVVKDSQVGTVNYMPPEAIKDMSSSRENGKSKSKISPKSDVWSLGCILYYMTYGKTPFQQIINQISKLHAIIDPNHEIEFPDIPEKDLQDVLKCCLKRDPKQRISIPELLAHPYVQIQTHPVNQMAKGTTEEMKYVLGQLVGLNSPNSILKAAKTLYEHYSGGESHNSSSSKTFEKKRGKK

[9] = target: T3, panel of more than 300 wild-type and mutant kinases (313 kinase panel) (Homo sapiens, UniProt P45985); details: kinase MAP2K4; compound at 1 μM
T3 sequence (P45985 1-399): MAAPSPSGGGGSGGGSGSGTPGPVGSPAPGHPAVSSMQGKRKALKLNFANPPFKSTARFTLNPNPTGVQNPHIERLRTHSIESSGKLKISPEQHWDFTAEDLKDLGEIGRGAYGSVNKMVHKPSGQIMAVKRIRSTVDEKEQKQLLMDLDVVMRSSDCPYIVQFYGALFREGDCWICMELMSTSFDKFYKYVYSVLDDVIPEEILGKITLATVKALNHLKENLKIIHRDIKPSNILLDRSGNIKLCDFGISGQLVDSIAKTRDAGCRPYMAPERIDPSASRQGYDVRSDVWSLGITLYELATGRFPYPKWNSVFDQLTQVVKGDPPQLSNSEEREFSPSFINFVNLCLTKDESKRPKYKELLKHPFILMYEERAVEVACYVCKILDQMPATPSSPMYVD

[10] = kinase DCAMKL2, compound at 1 μM

panel of more than 300 wild-type and mutant kinases (313 kinase panel) (Homo sapiens, UniProt P41240), sequence (P41240 whole entry, change not shown): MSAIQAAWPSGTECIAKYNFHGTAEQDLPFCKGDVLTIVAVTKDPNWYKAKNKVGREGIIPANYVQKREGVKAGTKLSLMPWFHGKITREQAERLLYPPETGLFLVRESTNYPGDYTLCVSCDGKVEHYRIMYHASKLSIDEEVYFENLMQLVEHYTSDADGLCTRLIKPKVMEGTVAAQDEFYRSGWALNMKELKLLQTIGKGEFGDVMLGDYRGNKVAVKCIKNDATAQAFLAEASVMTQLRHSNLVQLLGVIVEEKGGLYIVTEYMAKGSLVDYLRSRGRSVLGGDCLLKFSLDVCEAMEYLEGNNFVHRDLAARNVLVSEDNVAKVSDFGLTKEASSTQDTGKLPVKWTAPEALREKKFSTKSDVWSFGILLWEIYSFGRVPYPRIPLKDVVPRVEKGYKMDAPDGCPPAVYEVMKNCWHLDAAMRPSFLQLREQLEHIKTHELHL

Row | SMILES | %-inhibition of JAK1 ([1]; kinase JAK1, compound at 1 μM) [%] | %-inhibition of DCAMKL2 [2, 10] [%] | %-inhibition, CK2α1/β [3] [%] | %-inhibition of NuaK1 ([4]; kinase NuaK1, 1 μM) [%] | %-inhibition of LIMK1 [5] [%] | %-inhibition of LYNa ([6]; kinase LYNa, compound at 1 μM) [%] | %-inhibition of CSK ([7]; kinase CSK, compound at 1 μM) [%] | %-inhibition of TTK [8] [%] | %-inhibition of JAK1 ([1]; 1 µM) [%] | %-inhibition of NuaK1 ([4]; 1 µM) [%] | %-inhibition of CSK ([7]; 1 µM) [%] | %-inhibition of MAP2K4 [9] [%] | %-inhibition of LYNa ([6]; 1 µM) [%] | %-inhibition of DCAMKL2 ([2]; 1 µM) [%]
1 | CCCS(=O)(=O)Nc1ccc(F)c(C(=O)c2c[nH]c3ncc(-c4ccc(Cl)cc4)cc23)c1F [vemurafenib] | 46 | -3.52 | -5.39 | 4 | 45 | 73 | 76 | -14 | – | – | – | – | – | –
2 | CCN(CC)CCNC(=O)c1c(C)[nH]c(/C=C2\C(=O)Nc3ccc(F)cc32)c1C [sunitinib] | – | – | -21 | – | – | – | – | – | – | – | – | – | – | –
3 | Cc1cn(-c2cc(NC(=O)c3ccc(C)c(Nc4nccc(-c5cccnc5)n4)c3)cc(C(F)(F)F)c2)cn1 [nilotinib] | – | -17 | 3.23 | – | -18 | 85 | – | -8 | 13 | -17 | 78 | -4.54 | – | –
4 | CS(=O)(=O)CCNCc1ccc(-c2ccc3ncnc(Nc4ccc(OCc5cccc(F)c5)c(Cl)c4)c3c2)o1 [lapatinib] | -3 | 7 | -1.7 | 3 | -2.33 | – | – | 0.257 | – | – | 1.88 | 0.409 | 9 | –
5 | Cc1nc(Nc2ncc(C(=O)Nc3c(C)cccc3Cl)s2)cc(N2CCN(CCO)CC2)n1 [dasatinib] | – | 2 | -1.7 | – | – | – | – | – | – | – | – | -3.71 | – | –
6 | Cc1ccc(Nc2nccc(N(C)c3ccc4c(C)n(C)nc4c3)n2)cc1S(N)(=O)=O [pazopanib] | 9 | -2.72 | -3 | 73 | – | 84 | 12 | 31 | – | – | – | – | – | –
7 | N#CC[C@H](C1CCCC1)n1cc(-c2ncnc3[nH]ccc23)cn1 [ruxolitinib] | – | – | -6 | 55 | 60 | 13 | -0.827 | 2 | – | – | – | 10 | – | 64
8 | COc1cc(Nc2c(C#N)cnc3cc(OCCCN4CCN(C)CC4)c(OC)cc23)c(Cl)cc1Cl [bosutinib] | -2 | -2.32 | – | 84 | -7 | 93 | 84 | – | – | – | – | – | – | –
